Tests used:
[1] = test system: platelet aggregation induced by ADP; assay: Platelet aggregation inhibitory activity in vivo (Born aggregometer), ADP-induced; parameters: species or system New Zealand rabbits; conditions: Oryctolagus cuniculus, Platelet, ip, dose for 50% inhibition of ADP-induced aggregation curve; rabbits, intraperitoneal, blood 2, 4 and 6 hours after injection; read-out: platelet antiaggregant activity (AAP), DI50, ADP
Experimental: (§1) Determination of the platelet aggregation inhibitory activity in vivo
(§2) The activity of the above described compounds as platelet antiaggregant was tested in vivo on rabbits, by the Born aggregometer. The inhibition of the aggregation curve induced by ADP and thrombin was assessed with different drug concentrations according to the platelet reactivity. New Zealand rabbits which had been held fasting for 12 hours with water ad libitum, were anaesthetized with Nembutal in a dose of 35 mg/kg intramuscolarly. The blood was withdrawn from the carotidal arthery, before (control) and 2, 4, and 6 hours after the intraperitoneal injection of the compounds under examination (at the dose indicated below). The blood samples were taken up in a 3.8% aqueous solution of sodium citrate in a ratio 10:1 and thereupon centrifuged at 1500 r.p.m. for 10 minutes, for obtaining a PRP (platelet rich plasma). A portion of such a plasma was thereupon centrifuged at 8000 r.p.m. for 10 minutes, for obtaining a PPP (platelet lean plasma) which was used for zeroing the measuring apparatus.
(§3) From the results of said experiments, there was determined the dose of each product in mg/kg body weight able to induce a 50% inhibition of the aggregation curve (DI50) after treatment, referred to the curve obtained by the same control plasma before treatment.
(§4) In tables I and II are further indicated for each compound the method of preparation; the melting point PF in °C; the platelet antiaggregant activity (AAP) expressed in terms of DI50 in mg/kg, referred to ADP and thrombin respectively; the antithrombin activity (AT) in %; the anticoagulant activity (AC) in %; the fibrinolytic activity (FL) in %; the acute toxicity (LD50) in mice, intraperitoneally, in mg/kg, as previously defined.

[2] = test system: thrombin-induced coagulation of platelet rich plasma; assay: Antithrombin activity on PRP, Hartert's thromboelastograph; format: in vivo, New Zealand rabbits; conditions: Oryctolagus cuniculus, Platelet, ip, percent decrease of index ma/[r+k] vs before treatment; 20 mg/kg intraperitoneal, rabbits
Experimental: Determination of the antithrombin activity
The antithrombin activity on the PRP (platelet rich plasma) obtained following the above described method was assessed by Hartert's thromboelastograph (Hellige model). The coagulation was induced by adding to 0.25 ml of plasma 0.06 ml of a thrombin solution (Roche Topostasin® per os) at 60 units*, pH 7.4**. The antithrombin activity was assessed in terms of a percent decrease of the index (ma/[r+k]) which was calculated from the thromboelastograph diagram, wherein r is the reaction time, k is the speed of the coagulum formation and ma is the maximum spread of the tong, after an intraperitoneal treatment with a dose of 20 mg/kg of each compound under examination, referred to the same index obtained before the treatment (control).
as §4

[3] = Acute toxicity, intraperitoneal; conditions: mouse, in vivo, ip, male Swiss mice, intraperitoneal, 7 days observation; preliminary, by graphic interpolation; read-out: acute toxicity (LD50 / DL50)
Experimental: The acute toxicity limit was determined intraperitoneally on male Swiss mice, weighing 20±2 g, held fasting for 18 hours with water ad libitum.
The animals were maintained under observation for 7 days of treatment, by examining the general symptomatology and noting the death sequency. The preliminary DL50 in mg/kg body weight was calculated by graphic interpolation of the results as obtained.
as §4

[4] = test system: platelet aggregation induced by thrombin; assay: Platelet aggregation inhibitory activity in vivo (Born aggregometer), thrombin-induced; parameters: species or system New Zealand rabbits; conditions: Oryctolagus cuniculus, Platelet, ip, dose for 50% inhibition of thrombin-induced aggregation curve; rabbits, intraperitoneal, blood 2, 4 and 6 hours after injection; read-out: platelet antiaggregant activity (AAP), DI50, Thrombin
Experimental: as §1, §2, §3, §4

[5] = test system: CaCl2-induced plasma coagulation; assay: Anticoagulant activity on PRP, Hartert's thromboelastograph; format: in vivo, New Zealand rabbits; conditions: Oryctolagus cuniculus, ip, percent increase of total time for coagulum formation (r+k) vs before treatment; 25 mg/kg intraperitoneal, rabbits; read-out: anticoagulant activity (AC)
Experimental: Determination of the anticoagulant activity
The anticoagulant activity was also assessed on PRP of animals treated as described in the preceding methods, by using again Hartert's thromboelastograph method.
The plasma coagulation was induced by adding to 0.25 ml PRP a 1.29% solution of CaCl2.
The anticoagulant effect was determined as a percent increase of the total time for the coagulum formation (the index r+k can be obtained from the thromboelastograph diagram) in a plasma after treatment, referred to the same index obtained before the treatment (control). Again the dose level was 25 mg/kg for each compound under examination, intraperitoneally.
as §4

blood coagulum = assay: Fibrinolytic activity, Fearnley method (lysis of blood coagulum in toto); format: in vivo; conditions: Oryctolagus cuniculus, ip, 0.5 h, percent decrease of coagulum weight after 30 minutes at 37° C.; 25 mg/kg intraperitoneal, rabbits; read-out: fibrinolytic activity (FL)
Experimental: Determination of the fibrinolytic activity
The determination of the fibrinolytic activity was made following the Fearnley method for the lysis of the blood coagulum in toto.
0.2 ml of blood were withdrawn from the marginal vein of the ear of rabbits treated in the same way as the previously described tests, before and after an intraperitoneal injection of the compounds under test at a dose level of 25 mg/kg for each compound.
The blood samples were placed in test tubes containing 1.7 ml of phosphate buffer at pH 7.4 and 0.1 ml of thrombin (Roche Topostasin ® per os) at 50 units NIH/ml, and maintained in an ice bath. The test tubes were maintained at said temperature for 30 minutes and thereupon were transferred to a temperature controlled water bath at 37° C.
The fibrinolytic activity was determined as a percent decrease of the coagulum weight, measured after incubation for 30 minutes at 37° C.
as §4

Structure (SMILES)	ED50 [1] [mg/kg]	inhibition in vivo at 20 mg/kg [2] [%]	LD50 at 168 h [3] [mg/kg]	ED50 [4] [mg/kg]	change in vivo at 25 mg/kg [5] [%]	fibrinolytic activity (percent decrease of coagulum weight) at 25 mg/kg (blood coagulum) [%]
CC=COc1c(Cl)cc(C(=O)N(CCCCC)Cc2cccnc2)cc1C(=O)N(CCCCC)Cc1cccnc1 [Example 51]	51.6	28.2	205	32.4	15.7	26.1
C=C(C)Oc1c(Cl)cc(C(=O)N(C)Cc2cccnc2)cc1C(=O)N(C)Cc1cccnc1 [Example 52]	49.2	29.1	194	32.1	14.2	26.7
CC=CCOc1ccc(C(=O)N(C)Cc2cccnc2)cc1C(=O)N(C)Cc1cccnc1 [Example 53]	27.5	47.9	215	19.6	15.1	40.5
C=CC(C)Oc1ccc(C(=O)NCc2cccnc2)cc1C(=O)NCc1cccnc1 (stereo not drawn) [Example 54]	32.3	46.3	355	21.2	18.7	35.2
CC(C)=COc1ccc(C(=O)NCc2cccnc2)cc1C(=O)NCc1cccnc1 [Example 55]	28.2	32.5	338	20.5	19.2	29.5
C=C(C)COc1ccc(C(=O)N(Cc2cccnc2)C(C)C)cc1C(=O)N(Cc1cccnc1)C(C)C [Example 56]	29.1	47.3	352	21.4	18.6	38.1
O=C(NCc1ccncc1)c1ccc(O)c(C(=O)NCc2ccncc2)c1 [Example 57]	26	38.4	661	19.2	19	32.1
COc1ccc(C(=O)NCc2ccncc2)cc1C(=O)NCc1ccncc1 [Example 58]	28.1	37	704	21.3	18.2	31.7
CCCOc1ccc(C(=O)NCc2ccncc2)cc1C(=O)NCc1ccncc1 [Example 59]	25.2	39.1	623	18.1	20.6	32.8
CCCCCCOc1ccc(C(=O)NCc2ccncc2)cc1C(=O)NCc1ccncc1 [Example 60]	20.3	48.6	206	17.5	22.2	38.5

From patent US4294833A, “Substituted 4-hydroxy-isophthalic acid picolylamides having a pharmaceutical activity in thromboembolic disorders” (Societa Italo-Britannica, priority 1977, dated 1981)
